Results: article PMC2810428 (Journal of medicinal chemistry, 2010)

What was measured:
SK-OV-3-MDR 1–6/6 = SK-OV-3-MDR 1–6/6 vs SK-OV-3 pair; ref [32]; cited from earlier work
WTβIII = WTβIII vs HeLa pair; ref [32]; cited from earlier work
L1210 and B16 cells = details: read-out: reported IC50 values for L1210 and B16 cells; ref [3]–[5]; cited from earlier work
L1210 cells = experiment: Inhibition of L1210 cell growth; type: cell-based, murine; details: L1210 IC50, 9b versus 9a
MDA-MB-435 cells = experiment: Cell cycle analysis by flow cytometry; type: cell-based, human; details: paclitaxel positive control (0.0125 µM), data not shown

SMILES | Rr (relative resistance) (SK-OV-3-MDR 1–6/6) | Rr (relative resistance) (WTβIII) | IC50 (L1210 and B16 cells) [nM] | fold decrease in potency on shifting nitro group to the 3’ position (L1210 cells) [fold] | cell cycle distribution (MDA-MB-435 cells)
COc1cc2c(cc1O)CC[C@@H]1[C@@H]2CC[C@]2(C)[C@@H](O)CC[C@@H]12 [2-methoxyestradiol] | 2.6 | 1.0 |  |  | 
COc1ccc(/C=C\c2cc(OC)c(OC)c(OC)c2)cc1O [Compound 1, Combretastatin A-4] |  |  | 3 to 7 |  | 
COc1cc(C2=NN(C(C)=O)C(c3cccc([N+](=O)[O-])c3)O2)cc(OC)c1OC (stereo not shown) [Compound 9b] |  |  |  | 9 | 
CC(=O)O[C@H]1C(=O)[C@@]2(C)[C@H]([C@H](OC(=O)c3ccccc3)[C@]3(O)C[C@H](OC(=O)[C@H](O)[C@@H](NC(=O)c4ccccc4)c4ccccc4)C(C)=C1C3(C)C)[C@]1(OC(C)=O)CO[C@@H]1C[C@@H]2O [paclitaxel] | 860 | 4.7 |  |  | identical effect
